The text below walks through data of patent US9567318B2, “Substituted pyrimidine compounds and uses thereof” (Memorial Sloan-Kettering Cancer Center, priority 2009, dated 2017).

The assay has as its system STAT1 in MDA-MB-468 cells. The experiment in a line: Activated STAT1 DNA binding assay (ELISA). It is filed as cell-based, human. Conditions: IFNγ 100 ng/ml. On the procedure: FIG. 19. YK5 enhances the nuclear content of IFNγ activated STAT1 and potentiates its binding to DNA. MDAMB-468 cells were treated with IFNγ (100 ng/ml) or co-treated with IFNγ (100 ng/ml) and YK5 (10 μM). (a) Activated STAT1 (pTyr701), was determined by immunofluorescent microscopy with a secondary antibody conjugated with FITC. Nuclear staining was performed with DAPI. (b) Activated STAT1 binding to STAT consensus binding site (5′-[…]-3′) was determined by an ELISA-based assay. Activated STAT1, contained in lysates from untreated (white bar), treated with YK5 (light grey bar), IFNγ (dark grey bars) or the combination of IFNγ and YK5 (black bars) cells, and bound to the oligonucleotide, was detected through use of an anti-STAT1 antibody. Assays were performed in the absence or presence of 20 pmol of competitor oligonucleotide that contains either a wild-type or a mutated STAT consensus binding site using IFNγ-treated cells (dark grey bars). […] Results are expressed as mean absorbance values (OD450 nm) with SEM.
Activated STAT1 DNA binding assay. […] After HRP substrate addition, absorbance was read at 450 nm with a reference wavelength of 655 nm (Synergy4, Biotek, Winooski, Vt.). In this assay the absorbance is directly proportional to the quantity of DNA-bound transcription factor present in the sample. […] Results were expressed as mean absorbance values with SEM. […]
On the technique in general: An ELISA detects its analyte on a solid surface through an enzyme-linked reagent.

`C=CC(=O)Nc1cc(N)nc(Sc2c(OC)nc(N3CCN(C)CC3)nc2OC)n1` [YK5, N-(6-amino-2-(4,6-dimethoxy-2-(4-methylpiperazin-1-yl)pyrimidin-5-ylthio)pyrimidin-4-yl)acrylamide]: the “DNA-binding efficacy of activated STAT1” value is on record as “increased its DNA-binding efficacy”.
